SMILES strings stand for the structures.

Consider `COC(=O)Cc1ccc(OC(=S)N(C)C)cc1F`, for which the melting point lay within 113 to 114 °C.
The compound `CC(Oc1ccc(F)cc1)c1ccnc2ncnn12` (centres undefined) had a melting point of 100 to 102 °C.
Next, `c1cc2c(cc1NC1=NCCN1)CCC2`: 41 to 42 °C; `Cc1cccc(NC(=O)NCC(=O)N2[C@@H](c3ccccc3F)SC[C@H]2C(=O)OC(C)(C)C)c1`: 107 °C.
Next, `CCOP(=O)(OCC)Oc1cc(CC)ccc1C1CCN(CCCCNC(=O)c2ccc(NC(=O)c3ccc(Cl)cc3)cc2)CC1`: 158 to 160 °C; `COc1cc(Nc2c(C#N)cnc3cc(-c4cccc(CCN5CCOCC5)c4)c(OC)cc23)c(Cl)cc1Cl`: 193 to 195 °C; `O=C1CC2(C(=O)N1)C(=O)N1CCCc3cccc2c31` (centres undefined): 253 to 255 °C.
With `Cc1ccc(-c2ccc3c(c2)C=C(C(=O)Nc2ccc(CN(C(C)C)C(C)C)cc2)CCO3)cc1`, the melting point is 152 to 153 °C.
The same measure for `Nc1nnc(-c2cc(Cl)cc(Cl)c2O)s1`: 268 °C.
Compound `CSc1ccc(NC2=C(C#N)CSC2)c([N+](=O)[O-])c1` came in with a melting point of 141 to 142 °C.
In turn, `CNc1nc(SC)nc(N(C)C)c1[N+](=O)[O-]` had a melting point of 128 to 132 °C.
`Clc1cc(Cl)cc(-c2cc[nH]n2)c1` came in with a melting point of 156 °C.
`O=C1NC(Cc2ccccc2)C(C(=O)O)O1` (centres undefined): the melting point lay within 172 to 174 °C.
The same measure for `CC1=C(C(=O)O)C(c2cccc([N+](=O)[O-])c2)C(C(=O)OCCC#N)=C(C)N1` (centres undefined): 131 to 132 °C.
Compound `CN1Cc2cncn2-c2cccc(Br)c2C1=O` registered a melting point of 196 to 197 °C.
Next, `CC(NC(=O)CSC(=O)c1ccccc1)C(=O)NCC(=O)NCC(=O)O` (centres undefined): 167 to 170 °C; `Cc1ccc(S(=O)(=O)O)cc1C=C1C(=O)C2(C)CCC1C2(C)C` (centres undefined): 130 °C.
Take `O=C(O)c1cc(-c2ccccc2S(=O)(=O)Cl)c2ccc3c(-c4ccccc4S(=O)(=O)Cl)cc(C(=O)O)nc3c2n1`: the melting point was > 300 °C.
On to `CSc1nnc(C2C(=O)N(C(N)=O)c3ccc(Cl)cc32)o1` (centres undefined), for which the melting point lay in the range of 297 to 299 °C.
Turning to `O=c1ncc(Br)cn1COCc1ccccc1`, the melting point worked out at 169 °C.
`COC(=O)c1ccc(C=Cc2cnc3nc(NC(=O)C(C)(C)C)nc(O)c3c2)[nH]1`: the melting point was > 260 °C.
The same measure for `Nc1c2c(nc3ccccc13)-c1ccccc1SC2`: 211 to 212 °C; for `C=C(Cl)COc1cc(C)nc(NCCCCCC)n1`: 36 to 37 °C; for `CN1CC(=O)N(C)C1=NC(=O)Nc1cccc(Cl)c1`: 134 to 137 °C.
For `Cc1cn(-c2ccc(NC(=O)c3ccc(C)c(C#Cc4ccc(NC5CC5)nn4)c3)cc2C(F)(F)F)cn1`, the melting point lay within 125 to 126 °C.
In turn, `COC(=O)C(C#N)CC(=S)c1ccc(C)cc1` (centres undefined) showed a melting point of 88 to 90 °C.
As to `COC(=O)c1ccc(C(C(N)=O)C(C)c2cc([N+](=O)[O-])ccc2N2CCCCC2)cc1` (centres undefined), the melting point fell in the range of 178 to 180 °C.
In turn, `CCCCc1nc(SC2CCCCC2)c(C(=O)O)n1Cc1cc2c(cc1Cl)OCO2` came in with a melting point of 257 °C.
For the compound `Nc1ccc2c(ccn2C(=O)c2ccc(F)cc2)c1`, the melting point fell in the range of 205 to 207 °C.
`COC(=O)C1CSc2sccc2C1=O` (centres undefined) had a melting point of 94 to 97 °C.
Next, `NC(=O)N1CCCN(NC(=O)c2cc(=O)c(O)c[nH]2)C1=O`: 215 to 220 °C; `Cc1nc2c(OCc3c(Cl)ccc(N(C)C(=O)CNC=O)c3Cl)cccn2c1Br`: 211 to 212 °C.
In turn, `CCNc1ccc(-c2nnsc2-c2ccc(NCC)cc2)cc1` came in with a melting point of 96.5 to 98.5 °C.
Regarding `COC(=O)C1=C(C)NC(C)=C(Cl)C1c1ccccc1` (centres undefined), the melting point came out at 147 °C.
For `N#Cc1cccc2c(C3CCCCC3)nccc12`, the melting point is 94.7 °C.
Regarding `CC#CNC(=O)NC(=NC(=O)N(C)C)SC`, the melting point lay within 88 to 91 °C.
As for `CC(C)c1cccc(-c2ccc(C(=O)NO)nc2)c1`, the melting point lay in the range of 130 to 135 °C.
With `NC(=O)CNC(=O)C1(N2CCCC2=O)CC1`, the melting point worked out at 180 °C.
Turning to `Fc1ccc(-c2nc3ccccc3nc2-c2ccc(F)cc2)cc1`, the melting point worked out at 132 °C.
Compound `COc1ccc(Cn2nnc(-c3cccc(C(=O)Cl)c3)n2)cc1` had a melting point of 122 to 124 °C.
With `COC(=O)c1cc(C(=O)OC)c(NCCCc2ccccc2)cn1`, the melting point lay in the range of 102 to 104 °C.
For `O=S(CCCCCCOc1ccc(C2=C(c3ccccc3)CCCc3cc(O)ccc32)cc1)Cc1ccccn1` (centres undefined), the melting point is 80 °C.
`O=C(O)CNC(=O)c1nc2ccc(Oc3ccccc3)cc2cc1O` showed a melting point of 225 to 227 °C.
`CCN(CC)C(=O)c1ccc(S(=O)(=O)N(CC)CC)o1`: the melting point was 56.4 °C.
With `Cc1c(-c2ccccc2)n(-c2ccc(S(C)=O)cc2)c(-c2ccccc2)cc1=O` (centres undefined), the melting point was 242 to 244 °C.
Next, `COc1ccc2sc(-c3ccc(OCCN4CCCC4)cc3)c(C(=O)c3ccc(OC4CCCCC4N4CCCCC4)cc3)c2c1` (centres undefined): 63 to 66 °C; `COc1ccccc1NC(=O)Nc1ccc2c(c1)CCN(C(=O)Nc1ccc(OCCO)cc1Cl)C2`: 130 to 135 °C; `C(=C\c1cc(/C=C/c2ccc3cc[nH]c3c2)[nH]n1)/c1ccc2cc[nH]c2c1`: 289 to 291 °C.
In turn, `CS(=O)(=O)Cc1cc(C(=O)C=O)ccc1OCc1ccccc1` showed a melting point of 108 to 110 °C.
As for `O=C(C1=NN(c2ccc(Cl)cc2Cl)C(c2ccc(Cl)cc2)C1)N1CCCCC1` (centres undefined), the melting point was in the range of 105 to 110 °C.
With `O=C1NCCN(NC(=O)c2cc(OCc3ccccc3)c(OCc3ccccc3)cn2)C1=O`, the melting point was found to be 231 °C.
In turn, `O=C(CCc1ccc(Cl)cc1Cl)NC1N=C(c2ccccc2)c2ccccc2-n2ccnc21` (centres undefined) yielded a melting point of 183 to 184 °C.
In the case of `CON=C(c1ncon1)c1ccccc1COc1ccc(Cl)cc1`, the melting point was in the range of 107 to 108 °C.
Compound `CC(C)NC(=O)Nc1cccc2c1C(=O)C1(O)c3ccc(C(C)C)cc3OC21O` (centres undefined) showed a melting point of 81 to 85 °C.
`CC(C)=CCNC(=O)N1CC(Oc2cccc(C(F)(F)F)c2)C1` gave a melting point of 143 to 144 °C.
Compound `COc1ccc(Nc2nc(NC(C)C)nc(N(C)C3CCNCC3)n2)cc1Cl` displayed a melting point of 129 °C.
With `c1ccc(C2NCCc3ccccc32)nc1` (racemic), the melting point amounted to 124 °C.
Regarding `O=C(Nc1cc[nH]n1)c1c(F)cccc1F`, the melting point was 201 to 204 °C.
`COC(=O)c1ccc(Cc2c[nH]c3ccc(C(=O)OC)cc23)c(OC)c1` registered a melting point of 136 to 138 °C.
Next, `CN1C(=O)C(C(=O)Nc2ccc(F)cc2)S(=O)(=O)c2cc(F)ccc21` (centres undefined): 153 to 155 °C.
Take `CNc1nnc(SCc2ccccc2)s1`: the melting point was in the range of 87 to 89 °C.
On to `O=C(c1cccs1)c1cnn2c(-c3ccc(F)c(N(C(=O)c4ccccc4Cl)C(=O)c4ccccc4Cl)c3)ccnc12`, for which the melting point was 150 to 151 °C.
The compound `c1ccc(Pc2ccccc2)cc1` yielded a melting point of 128 to 131 °C.
In the case of `COc1c(Cl)c(Cl)c2c(-c3ccccc3F)noc2c1Cl`, the melting point lay in the range of 120 to 140 °C.
For the compound `Cn1cc(-c2cccc(C(F)(F)F)c2)c(=O)c(C2CCCCC2)c1`, the melting point fell in the range of 174 to 175 °C.
The same measure for `CCOC(=O)C(O)CCc1ccc(OC)c(OCc2ccccc2)c1` (centres undefined): 93 to 94 °C; for `Cc1nc2c(OCc3c(Cl)ccc([N+](=O)[O-])c3Cl)cccn2c1Br`: 217 to 219 °C; for `COc1ccc(N2CCN(c3c(C)c(C)c4c(c3C)C(CN3CCCC3)C(C)(C)O4)CC2)cc1` (centres undefined): 94 to 96 °C.
On to `CCN(CC1CCN(C(N)=O)CC1)C(C)Cc1ccc(OC)cc1` (centres undefined), for which the melting point lay within 104 to 110 °C.
For the compound `N#CSc1cnn(-c2c(Cl)cc(C(F)(F)F)cc2Cl)c1N`, the melting point was determined as 137 °C.
As for `CCOC(=O)c1c(Oc2cccc(Cl)c2)c2cc(C(c3ccc(Cl)cc3)c3cnc(-c4ccccc4)[nH]3)ccc2[nH]c1=O` (centres undefined), the melting point amounted to 189 °C.
In turn, `COc1ccccc1C=C(C=O)C(C=O)=Cc1ccccc1OC` registered a melting point of 163 to 164 °C.
Compound `COC(=O)c1cc(C(=O)OC)cc(-c2cc(C(F)(F)F)cc(C(F)(F)F)c2)c1` returned a melting point of 151 °C.
Next, `O=C1NC(=O)c2c1c(-c1ccccc1)cc1c2c2cc(O)ccc2n1CC(O)CO` (centres undefined): 290 to 295 °C; `COc1cc(C=C2C(=O)CCc3ccc([N+](=O)[O-])cc32)c([N+](=O)[O-])cc1OC`: 125 °C.
Turning to `CCOC(=O)c1ncn2c(C(F)F)cc(-c3ccc(C(F)(F)F)cc3)nc12`, the melting point amounted to 219 °C.
For the compound `CCCCCCCCCCCCNC(=O)c1cc(Br)c(OCCn2cnnn2)c(-c2cccc(OC)c2)c1`, the melting point lay within 100 to 101 °C.
Compound `C#CCCCCOc1ccc(/C=C/C(=O)Nc2ccccc2C(=O)O)cc1OC` came in with a melting point of 148 to 150 °C.
`C[Si](C)(C)c1cc(CCC(=O)O)co1` gave a melting point of 25 °C.
On to `CC(C)(C)c1csc(NC(=O)c2ccccc2)c1C#N`, for which the melting point came to 130 °C.
`O=C(Nc1ccc(F)c(CBr)c1)c1ccccn1`: the melting point is 137 to 138 °C.
The same measure for `COCOc1cccc(Cn2nc(C(=O)OC)c3c2-c2ccc(OCc4cncnc4)cc2CC3)c1`: 178 to 180 °C.
Compound `COC[C@H](C)Oc1cc(O)cc(C(=O)O)c1` registered a melting point of 95 °C.
For `COC(=O)Cc1c(Cl)ncnc1OC`, the melting point came to 64 °C.
The compound `O=C(Nc1ccc(Cl)cc1)N1CC(c2ccccc2)C(c2ccc(Cl)cc2)=N1` (centres undefined) showed a melting point of 173 to 175 °C.
The same measure for `CN(CC(O)CO)C(=O)c1c(I)c(C#N)c(I)c(C(=O)NCC(O)CO)c1I` (centres undefined): 215 °C; for `CC(=O)NC[C@H]1CN(c2ccc(-c3ncno3)c(F)c2)C(=O)O1`: 199 to 200 °C.
`COC(=O)CN1CC([N+](=O)[O-])=C(Cc2ccc(C(C)(C)C)cc2)C=C1C` yielded a melting point of 135 °C.
Turning to `CC(=O)N1CCC1CC(=O)O` (centres undefined), the melting point is 148 to 150 °C.

The values above are taken from a melting point compilation (Tetko et al.; mined from patent text by program, amines drawn as free bases though some values may be those of a salt).
